Measured values as given in patent US6133319A, “IL-8 receptor antagonists” (SmithKline Beecham Corporation, priority 1999, dated 2000).

Target: T1, recombinant human IL-8 type b receptor (IL-8 Rb, Type II, permissive receptor) (Homo sapiens, UniProt P25025)
T1 sequence (P25025 1-360): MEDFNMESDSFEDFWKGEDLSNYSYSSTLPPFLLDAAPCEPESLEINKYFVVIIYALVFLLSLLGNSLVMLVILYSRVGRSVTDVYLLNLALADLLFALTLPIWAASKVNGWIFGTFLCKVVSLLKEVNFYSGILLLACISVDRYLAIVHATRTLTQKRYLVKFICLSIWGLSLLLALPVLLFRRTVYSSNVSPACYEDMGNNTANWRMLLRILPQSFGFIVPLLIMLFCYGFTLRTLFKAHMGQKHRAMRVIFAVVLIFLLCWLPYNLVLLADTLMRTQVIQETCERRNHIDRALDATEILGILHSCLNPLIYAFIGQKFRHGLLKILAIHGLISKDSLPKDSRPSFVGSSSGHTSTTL
Experiment: Receptor binding assay, [125I] IL-8 binding to IL-8 Rb (Type II, permissive) receptor membranes
Details: recombinant IL-8 Rb (Type II) CHO membranes
Procedure: The IL-8, and Gro-a chemokine inhibitiory effects of compounds of the present invention were determined by the following in vitro assay:
[^125 I] IL-8 (human recombinant) was obtained from Amersham Corp., Arlington Heights, Ill., with specific activity 2000 Ci/mmol. Gro-a was obtained from NEN- New England Nuclear. All other chemicals were of analytical grade. High levels of recombinant human IL-8 type a and b receptors were individually expressed in Chinese hamster ovary cells as described previously (Holmes, et al., Science, 1991, 253, 1278). The Chinese hamster ovary membranes were homogenized according to a previously described protocol (Haour, et al., J Biol Chem., 249 pp 2195-2205 (1974)). Except that the homogenization buffer was changed to 10 mM Tris-HCl, 1 mM MgS04, 0.5 mM EDTA (ethylene-diaminetetraacetic acid), 1 mM PMSF (a-toulenesulphonly flouride), 0.5 mg/L Leupeptin, pH 7.5. Membrane protein concentration was determined using Pierce Co. micro-assay kit using bovine serum albumin as a standard. All assays were performed in a 96-well micro plate format. Each reaction mixture contained ^125 I IL-8 (0.25 nM) or ^125 I Gro-a and 0.5 μg/mL of IL-8Ra or 1.0 μg/mL of IL-8Rb membranes in 20 mM Bis-Trispropane and 0.4 mM Tris HCl buffers, pH 8.0, containing 1.2 mM MgSO4, 0.1 mM EDTA, 25 mM NaCl and 0.03% CHAPS. In addition, drug or compound of interest was added which had been pre-dissolved in DMSO so as to reach a final concentration of between 0.01 nM and 100 uM. The assay was initiated by addition of ^125 I-IL-8. After 1 hour at room temperature the plate was harvested using a Tomtec 96-well harvester onto a glass fiber filtermat blocked with 1% polyethylenimine/0.5% BSA and washed 3 times with 25 mM NaCl, 10 mM TrisHCl, 1 mM MgSO4, 0.5 mM EDTA, 0.03% CHAPS, pH 7.4. The filter was then dried and counted on the Betaplate liquid scintillation counter. The recombinant IL-8 Ra, or Type I, receptor is also referred to herein as the non-permissive receptor and the recombinant IL-8 Rb, or Type II, receptor is referred to as the permissive receptor.

| SMILES | activity in the permissive models for IL-8 receptor inhibition (result in words) |
| --- | --- |
| N#Cc1ccc(NC(=O)N[C@@H]2CCCC[C@H]2OCc2ccccc2)c(NS(=O)(=O)c2ccccc2)c1 (relative stereo) [N-trans-(2-benzyloxycyclohexyl)-N'-((2-benzenesulfonylamino)4-cyanophenyl))urea] | inactive |
| CC(C)(COCc1ccccc1)NC(=O)Nc1ccc([N+](=O)[O-])cc1O [Example 6, N-(1,1-Dimethyl-2-benzoxyethyl)-N'-(2-hydroxy-4-nitrophenyl)urea] | inactive |
| O=C(O)CCNC(=O)Nc1ccc([N+](=O)[O-])cc1O [N-(2-carboxyethyl)-N'-(2-hydroxy-4-nitrophenyl)urea] | inactive |
| CC(C)OCCNC(=O)Nc1ccc([N+](=O)[O-])cc1O [N-(ethylisopropylether)-N'-(2-hydroxy-4-nitro-phenyl)urea] | inactive |
